The text below walks through data of BindingDB's records for doi:10.3109/14756366.2011.651464 (Ege University, 2013).

Targets include Carbonic anhydrase 1 (Homo sapiens, UniProt P00915); Carbonic anhydrase 6 (Homo sapiens, UniProt P23280); Carbonic anhydrase 4 (Homo sapiens, UniProt P22748); Carbonic anhydrase 2 (Homo sapiens, UniProt P00918).
Test in all cases: Esterase Activity Assay
Common to all, as to conditions: pH 7.4

In a further test the target is T1, Carbonic anhydrase 3 (Bos taurus, UniProt Q3SZX4).
T1 sequence (Q3SZX4 whole entry): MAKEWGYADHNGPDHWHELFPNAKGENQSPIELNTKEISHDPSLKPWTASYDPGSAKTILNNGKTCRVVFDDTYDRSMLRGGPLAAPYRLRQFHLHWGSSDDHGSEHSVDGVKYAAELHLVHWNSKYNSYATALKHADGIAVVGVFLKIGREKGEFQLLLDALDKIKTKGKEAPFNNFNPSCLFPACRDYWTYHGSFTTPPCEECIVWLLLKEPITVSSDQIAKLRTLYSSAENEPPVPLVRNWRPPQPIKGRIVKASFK

Chain of Carbonic anhydrase 1 (P00915 whole entry): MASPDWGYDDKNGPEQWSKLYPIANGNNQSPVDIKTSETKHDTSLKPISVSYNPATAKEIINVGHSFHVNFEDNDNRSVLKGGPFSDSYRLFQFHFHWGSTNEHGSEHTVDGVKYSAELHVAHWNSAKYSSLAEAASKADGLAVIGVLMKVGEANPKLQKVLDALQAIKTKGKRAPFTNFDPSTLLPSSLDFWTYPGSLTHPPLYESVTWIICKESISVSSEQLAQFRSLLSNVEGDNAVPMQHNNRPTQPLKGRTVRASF
Chain of Carbonic anhydrase 6 (P23280 whole entry): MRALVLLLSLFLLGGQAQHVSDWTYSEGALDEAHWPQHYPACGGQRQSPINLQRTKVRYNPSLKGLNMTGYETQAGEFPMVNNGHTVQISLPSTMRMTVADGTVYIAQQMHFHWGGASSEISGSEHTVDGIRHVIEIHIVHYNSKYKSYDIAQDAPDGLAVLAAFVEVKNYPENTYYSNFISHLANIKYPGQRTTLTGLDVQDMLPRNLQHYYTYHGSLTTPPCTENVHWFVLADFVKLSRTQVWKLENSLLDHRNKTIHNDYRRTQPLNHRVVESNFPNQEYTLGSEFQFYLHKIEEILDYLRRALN
Chain of Carbonic anhydrase 4 (P22748 whole entry): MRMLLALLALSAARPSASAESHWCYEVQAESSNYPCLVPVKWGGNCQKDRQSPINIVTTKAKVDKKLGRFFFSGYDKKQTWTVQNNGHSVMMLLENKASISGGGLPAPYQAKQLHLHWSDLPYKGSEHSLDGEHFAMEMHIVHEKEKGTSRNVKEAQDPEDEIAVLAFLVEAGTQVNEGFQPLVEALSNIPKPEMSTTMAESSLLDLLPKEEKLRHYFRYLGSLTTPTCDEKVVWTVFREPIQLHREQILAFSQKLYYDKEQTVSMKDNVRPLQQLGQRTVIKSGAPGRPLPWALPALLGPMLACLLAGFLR

On to `Oc1ccccc1O` [1,2-Dihydroxybenzene, XI], for which the Ki (in general, the equilibrium dissociation constant of an inhibitor or competing ligand from its target) on Carbonic anhydrase 3 came to 5790 nM.
As to `Oc1cccc(O)c1`, the affinity at Carbonic anhydrase 3, expressed as Ki, was 196000 nM.
Still for that read-out and setting: the result for `O=c1c(O)c(-c2ccc(O)c(O)c2)oc2cc(O)cc(O)c12` [2-(3,4-dihydroxyphenyl)-3,5,7-trihydroxy-chromone;hydrate] reads 3730 nM.
On to `CC(C)(O)[C@@H]1CC[C@](C)([C@H]2[C@@H](O)C[C@@]3(C)C4C[C@H](O[C@@H]5OC(CO)[C@@H](O)C(O)[C@@H]5O)C5C(C)(C)[C@@H](O[C@@H]6OC[C@@H](O)C(O)[C@@H]6O)CC[C@@]56C[C@@]46CC[C@]23C)O1` (stereo partly drawn) [α-CA inhibitor, 8], for which the Ki on Carbonic anhydrase 1 is 1470 nM; on Carbonic anhydrase 6, 6960 nM; on Carbonic anhydrase 4, 2750 nM; at Carbonic anhydrase 3 it was 1930 nM; on Carbonic anhydrase 2 it was 970 nM.
`Oc1cc(O)c2c(c1)O[C@H](c1ccc(O)c(O)c1)[C@@H](O)C2` [(+)-Catechin] showed a Ki on Carbonic anhydrase 3 of 9710 nM.
For the compound `Oc1cc(O)c2c(c1)O[C@H](c1ccc(O)c(O)c1)[C@H](O)C2`, the Ki at Carbonic anhydrase 1 came out at 2320 nM; on Carbonic anhydrase 6, 4360 nM; on Carbonic anhydrase 4, 3980 nM; on Carbonic anhydrase 3, 8930 nM; on Carbonic anhydrase 2 it was 1240 nM.
Taken in the same sequence, the figures for `CC(C)(O)[C@@H]1CC[C@](C)([C@H]2[C@@H](O)C[C@@]3(C)C4C[C@H](O[C@@H]5OC(CO)[C@@H](O)C(O)[C@@H]5O)C5C(C)(C)[C@@H](O[C@@H]6OC[C@@H](O)C(O)[C@@H]6O[C@@H]6OC[C@H](O)C(O)[C@@H]6O)CC[C@@]56C[C@@]46CC[C@]23C)O1` (stereo partly drawn) [α-CA inhibitor, 7] were 940 nM, 4710 nM, 2410 nM, 1380 nM and 470 nM.
For the compound `CC(C)(O)[C@@H]1CC[C@](C)([C@H]2[C@@H](O)C[C@@]3(C)C4C[C@H](O[C@@H]5OC[C@@H](O)C(O)[C@@H]5O)C5C(C)(C)[C@@H](O[C@@H]6OC[C@@H](O)C(O)[C@@H]6O)CC[C@@]56C[C@@]46CC[C@]23C)O1` (stereo partly drawn) [α-CA inhibitor, 10], the Ki at Carbonic anhydrase 1 was 2210 nM; at Carbonic anhydrase 6, 9780 nM; on Carbonic anhydrase 4 it was 4360 nM; at Carbonic anhydrase 3 it was 2490 nM; on Carbonic anhydrase 2 it was 1280 nM.
